Test results published in US9796777B2, “Methods of treating malignant tumors” (Canimguide Therapeutics AB, priority 2007, dated 2017).

Key:
[1] = test system: PBMC; experiment: IL-2 induced proliferation of PBMC with albumin peptides in coated and uncoated tissue culture plates; type: cell-based, human
Protocol: A mixture of 1 mg/ml IgG in a solution of 9 mg/ml HSA in RPMI (HSA/IgG) was also prepared. 200 μl of HSA or HSA/IgG were then added to each well of the plate. The plates were incubated at 4° C. for 30 minutes after which the wells were washed twice with 200 μl of RPMI1640. The coated plates were used immediately. […] PBMC, isolated from healthy individuals, were diluted in RPMI/2% HSA and peptides were added directly to the cell suspension at a concentration of 10 μg/ml.

[2] = test system: natural killer (NK) cells; experiment: Cytotoxic activity of natural killer (NK) cells against K562 (NKTEST, flow cytometry); type: cell-based, human; conditions: four healthy donors; peptides 10 ug/ml; effector:target ratio 40:1
Protocol: Mononuclear cells were separated by standard Ficoll-paque Plus (Pharmacia AB, Sweden) density gradient centrifugation from heparinized blood obtained from healthy donors. NK cell cytotoxic activity of the mononuclear cells was then tested using a commercial kit (NKTEST, Orpegen Pharma GmbH, Heidelberg, Germany) following the manufacturers protocol. Briefly, the kit contains cryopreserved, NK-sensitive target cells (K562) labelled with a lipophilic green fluorescent membrane dye, which enables discrimination of effector and target cells. After incubation with effector cells, killed target cells are identified by a DNA-stain, which penetrates and specifically stain the nuclei of dead target cells. This way the percentage of killed targets can be determined by flow cytometry. The mononuclear cells were pre-incubated for 30 min at 37° C. with the indicated peptides (peptides have been described previously) at 10 ug/ml. Target cells were then added, giving an effector:target ratio of 40:1, and the cell mixture incubated at 37° C. for 3-4 hours. Samples were analysed on a FACSCalibur (BD Biosciences, San Jose, Calif.).

[3] = test system: PBMC; experiment: LPS-induced IL-6 production by PBMC, effect of peptides; type: cell-based, human; conditions: three cancer patients
[4] = test system: CD25; experiment: Binding of biotinylated IL-2 to CD25-Fc fusion protein on ELISA plates with or without peptide 3028; conditions: CD25-Fc on protein G coated plates
From the text: Based on this observation, the effect of peptide 3028 on the binding of IL-2 to CD25 was studied. […] Amazingly, the binding of IL-2 to CD25 was enhanced by peptide 3028, indicating a three-part interaction between IL-2, CD25 and 3028.

[5] = test system: PBMC; experiment: Human ex vivo model: IL-2 induced proliferation of PBMC in the presence of albumin peptides
[6] = molecular target: T1, β2-integrin LFA-1 (CD11a) (Homo sapiens, UniProt P20701); experiment: Immunocytochemical staining of PBMC and THP-1 with anti-integrin (CD11a) antibody with or without albumin peptides; type: binding; conditions: mononuclear blood cells
T1 construct: endogenous in cells; host or cells: human PBMC (healthy controls, cancer patients) and THP-1 monocytic cell line (ATCC)
Protocol: Cytospin preparations of mononuclear blood cells from healthy controls, cancer patients and a monocytic cell line, THP-1, were prepared (as described under materials and methods), dried and stored at −70° C. In the immunocytological staining, unspecific staining was blocked by incubation with 10% human AB serum. Some of the slides were preincubated for 60 minutes with albumin peptides at a concentration of 40 μg/ml, added to this 10% AB serum, as indicated in the FIG. 8 A-F. The staining procedure was then continued as described in material and methods. The staining intensity of slides stained with and without preincubation with the peptides was recorded semi quantitatively using a standard light microscope.
PBMC were separated as described above. Cultured THP-1 cells (obtained from the American Type Culture Collection through LGL Nordic AB, Sweden) were carefully washed and suspended in RPMI1640. PBMC and THP-1 were immediately spun down on pre-cleaned microscope slides in a Shandon Cytospin (Shandon Scientific Ltd, UK) at 1000 RPM for 7 min at 2.5 or 5×10^4 cells per slide. The slides were left to dry at room temperature over night, after which they were wrapped in parafilm and stored at −70° C. Immediately before use, the cytospins were thawed and fixed with acetone for 5 min at room temperature. The cytospins were first blocked with 10% normal human AB-serum with and without albumin peptides (40 ␣g/ml) for 1 h before staining. Primary antibody, consisting of a monoclonal mouse anti-human CD11a (clone HI111, BD Biosciences) diluted in Tris buffered saline (TBS, pH 7.6) at 5 μg/ml (THP-1) or 1 µg/ml (PBMC), was added. The slides were incubated for 30 min and then washed in TBS followed by Envision-Alkaline Phosphatase (Dako Norden A/S, Denmark) for 30 min. After additional washing in TBS, the slides were incubated in alkaline phoshatase substrate consisting of Fast Red TR salt (Sigma), naphtol AS-MX (Sigma) and 5 mM levamisol (Sigma) to block endogenous alkaline phosphatase activity, for 20 min followed by washing in TBS. They were then counterstained in Mayer's haematoxylin for 1 minute and mounted in Glycergel (Dako Norden NS). Monoclonal mouse IgG1 against an irrelevant antigen (Aspergillus niger glukosoxidase, Dako Norden NS) was used as a negative control. All incubations were performed at room temperature in a moist chamber.
FIG. 24. Inhibition of the binding of anti-LFA-1, mab HI111, to mononuclear blood cells by 3028 peptide and fragments 3325 and 3218. A standard immunohistochemical staining procedure using acetone fixation, 10% human AB-serum for blocking, incubation with HI 111 and a secondary antibody (Ultravision, an alkaline phosphate conjugated polymer attached to Fab-fragments of goat anti-mouse Ig), followed by development with Fast Red. The slides were then mounted in Glycergel. Preincubation with peptides added to the AB serum was as follows: A. No peptide added, B. peptide 3028, C. The C-terminal part (3218), and D. The N-terminal part (3325).

CD25, sequence (P01589 22-240 limits assumed): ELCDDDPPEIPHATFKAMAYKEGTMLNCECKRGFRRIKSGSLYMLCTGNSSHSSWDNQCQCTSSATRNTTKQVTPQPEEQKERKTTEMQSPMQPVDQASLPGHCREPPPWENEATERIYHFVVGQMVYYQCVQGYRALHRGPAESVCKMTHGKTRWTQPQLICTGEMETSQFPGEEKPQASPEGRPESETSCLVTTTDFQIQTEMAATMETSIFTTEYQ
T1 sequence (P20701 26-1170): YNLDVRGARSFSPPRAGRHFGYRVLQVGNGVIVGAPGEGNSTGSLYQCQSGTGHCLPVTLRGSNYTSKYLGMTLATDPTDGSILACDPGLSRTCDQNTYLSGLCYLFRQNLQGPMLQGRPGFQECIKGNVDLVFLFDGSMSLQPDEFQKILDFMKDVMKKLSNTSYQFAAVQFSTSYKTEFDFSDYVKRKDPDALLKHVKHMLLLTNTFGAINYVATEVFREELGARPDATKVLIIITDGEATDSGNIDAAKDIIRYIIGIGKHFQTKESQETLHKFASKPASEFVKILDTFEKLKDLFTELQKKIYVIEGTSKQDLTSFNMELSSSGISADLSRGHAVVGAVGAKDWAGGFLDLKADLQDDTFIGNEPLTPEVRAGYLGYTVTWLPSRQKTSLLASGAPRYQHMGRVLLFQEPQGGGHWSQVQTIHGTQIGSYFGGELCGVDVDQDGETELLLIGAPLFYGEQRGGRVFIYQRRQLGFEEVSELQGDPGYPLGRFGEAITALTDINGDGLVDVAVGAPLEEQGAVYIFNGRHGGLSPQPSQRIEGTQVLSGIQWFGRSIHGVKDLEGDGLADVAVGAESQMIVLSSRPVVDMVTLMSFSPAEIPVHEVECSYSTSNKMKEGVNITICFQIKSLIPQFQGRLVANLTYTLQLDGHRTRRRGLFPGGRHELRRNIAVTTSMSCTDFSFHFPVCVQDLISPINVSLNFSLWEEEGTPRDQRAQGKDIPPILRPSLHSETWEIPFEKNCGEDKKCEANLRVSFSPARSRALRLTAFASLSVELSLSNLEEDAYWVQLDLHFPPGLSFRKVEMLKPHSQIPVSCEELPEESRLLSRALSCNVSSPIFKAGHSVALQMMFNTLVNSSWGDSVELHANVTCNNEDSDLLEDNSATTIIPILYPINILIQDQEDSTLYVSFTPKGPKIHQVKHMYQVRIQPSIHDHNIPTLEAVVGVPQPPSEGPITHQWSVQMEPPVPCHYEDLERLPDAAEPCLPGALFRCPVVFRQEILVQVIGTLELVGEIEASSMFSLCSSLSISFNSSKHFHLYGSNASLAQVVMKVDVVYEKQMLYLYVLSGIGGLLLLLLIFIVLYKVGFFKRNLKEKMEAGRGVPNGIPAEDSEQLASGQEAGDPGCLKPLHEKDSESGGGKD
T1 sequence (P05107 23-769 partner): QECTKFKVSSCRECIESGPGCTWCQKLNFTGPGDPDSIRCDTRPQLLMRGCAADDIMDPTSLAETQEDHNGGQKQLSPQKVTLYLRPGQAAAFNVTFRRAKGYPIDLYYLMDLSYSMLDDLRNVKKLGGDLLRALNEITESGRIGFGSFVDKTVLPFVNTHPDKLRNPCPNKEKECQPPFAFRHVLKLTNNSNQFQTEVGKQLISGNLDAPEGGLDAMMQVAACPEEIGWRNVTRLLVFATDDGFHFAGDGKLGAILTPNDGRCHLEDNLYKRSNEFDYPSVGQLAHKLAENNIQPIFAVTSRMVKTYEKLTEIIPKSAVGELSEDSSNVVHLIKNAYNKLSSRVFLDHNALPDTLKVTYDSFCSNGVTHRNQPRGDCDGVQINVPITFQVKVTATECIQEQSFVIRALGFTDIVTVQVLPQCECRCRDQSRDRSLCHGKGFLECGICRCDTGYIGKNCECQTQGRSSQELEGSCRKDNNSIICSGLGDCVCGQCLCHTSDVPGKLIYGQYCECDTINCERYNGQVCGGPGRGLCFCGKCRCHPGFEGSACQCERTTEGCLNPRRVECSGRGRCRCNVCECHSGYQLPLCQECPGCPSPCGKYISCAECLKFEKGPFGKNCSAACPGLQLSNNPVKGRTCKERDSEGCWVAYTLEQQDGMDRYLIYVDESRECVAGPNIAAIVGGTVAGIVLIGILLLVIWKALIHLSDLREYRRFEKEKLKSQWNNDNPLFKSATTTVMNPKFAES

In the case of VFDEFKPLVEEPQNLIK [peptide 3028], the “inhibitory effect on IL-2 induced proliferation under modulation of the Fc-receptor cross-linking” value ([1]; HSA/IgG coated plates) was “completely reversed”, the “effect on IL-2 induced proliferation” value ([1]; PBMC from healthy individuals, peptide 5 μg/ml final, 7 days) was “highly inhibitory” and the “effect on percent specific lysis of K562 target cells” value [2] was “reduced the percent specific lysis of K562 target cells by all four donors”. For the same sequence, the “effect on LPS induced IL-6 production” value [3] was “essentially no effects”, the “effect on the binding of IL-2 to CD25” value [4] was “enhanced” and the “effect on IL-2 induced proliferation” value ([5]; cancer patient PBMCs) was “inhibitory activity”. For the same sequence, the “effect on IL-2 induced proliferation” value ([5]; human ex vivo model, PBMCs from healthy controls, peptides 10 μg/ml) was “regularly inhibits IL-2 induced proliferation” and the “effect on binding of the LFA-1 antibody (HI 111) to LFA-1” value [6] was “Both inhibition (FIG. 24) and enhancement of the binding”.
